Results as given in US9249129B2, “Morpholino substituted urea derivatives as mTOR inhibitors” (CELLZOME LIMITED, priority 2010, dated 2016).
Read-outs that look alike come from different tables or passages of the source.

What was measured:
mTOR = target: T1, mTOR (Homo sapiens, UniProt P42345); test: mTOR kinobeads assay (dot blot detection); type: binding
T1 construct: endogenous in cells; host or cells: Jurkat cells (ATCC TIB-152, clone E6-1), lysate
How it was run: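 Jurkat cell lysate (5 mg/mL protein) incubated 2 h in the cold with test compound (9-step 1:3 series) and immobilized phenylthiazole/phenylmorpholin-chromen ligand beads. Bead-bound kinases eluted, detected by specific antibody dot blot with infrared readout; IC50 from dose-response curves.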

PI3Kγ = target: T2, PI3Kγ (Homo sapiens, UniProt P48736); test: kinobeads assay, PI3K gamma (dot blot detection); type: binding; settings: Table 4, read-out: Inhibition values (IC50) PI3Kg
T2 construct: endogenous in cells; host or cells: Jurkat cells (ATCC TIB-152) lysate, the only lysate described

[1] = Table 2, Jurkat cell lysate, read-out: Inhibition values (IC50) mTor
[2] = Table 4, read-out: Inhibition values (IC50) mTOR

T2 sequence (P48736 whole entry): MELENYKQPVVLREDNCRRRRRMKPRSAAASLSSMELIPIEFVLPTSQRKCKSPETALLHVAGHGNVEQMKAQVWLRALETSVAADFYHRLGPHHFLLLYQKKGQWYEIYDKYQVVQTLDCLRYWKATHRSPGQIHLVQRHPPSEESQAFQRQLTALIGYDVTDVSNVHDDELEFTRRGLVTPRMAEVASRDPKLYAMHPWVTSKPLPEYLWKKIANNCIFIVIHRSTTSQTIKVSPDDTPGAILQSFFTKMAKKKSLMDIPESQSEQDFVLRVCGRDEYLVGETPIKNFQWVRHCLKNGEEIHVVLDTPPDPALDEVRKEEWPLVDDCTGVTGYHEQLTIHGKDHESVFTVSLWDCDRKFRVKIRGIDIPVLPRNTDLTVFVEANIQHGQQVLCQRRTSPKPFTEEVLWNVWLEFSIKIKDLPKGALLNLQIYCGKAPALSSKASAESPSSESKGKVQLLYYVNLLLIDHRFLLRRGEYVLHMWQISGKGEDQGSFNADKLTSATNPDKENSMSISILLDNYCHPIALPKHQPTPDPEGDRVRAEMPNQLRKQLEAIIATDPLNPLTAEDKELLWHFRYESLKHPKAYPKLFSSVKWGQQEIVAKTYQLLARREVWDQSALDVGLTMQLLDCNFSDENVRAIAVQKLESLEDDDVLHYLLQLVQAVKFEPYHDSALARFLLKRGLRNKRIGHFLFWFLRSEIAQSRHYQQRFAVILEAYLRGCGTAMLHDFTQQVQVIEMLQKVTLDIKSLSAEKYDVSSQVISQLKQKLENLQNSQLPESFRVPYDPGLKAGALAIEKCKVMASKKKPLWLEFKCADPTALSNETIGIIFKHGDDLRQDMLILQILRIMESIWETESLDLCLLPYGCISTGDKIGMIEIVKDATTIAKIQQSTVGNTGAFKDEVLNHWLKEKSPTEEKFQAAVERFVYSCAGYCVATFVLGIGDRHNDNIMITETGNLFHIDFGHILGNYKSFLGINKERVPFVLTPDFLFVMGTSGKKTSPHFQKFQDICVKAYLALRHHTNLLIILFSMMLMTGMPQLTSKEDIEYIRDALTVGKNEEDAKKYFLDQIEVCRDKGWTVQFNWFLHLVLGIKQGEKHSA

Row | IC50 (mTOR; [1]) [µM] | IC50 (mTOR; [2]) [µM] | IC50 (PI3Kγ) [µM] | Compound
1 | < 0.1 | < 0.1 | ≥ 10 | C[C@H]1COCCN1c1nc(-c2ccc(NC(=O)NCCO)cc2)cc(-c2cc(F)ccc2S(C)(=O)=O)n1 [Example 41, (S)-1-(4-(6-(5-fluoro-2-(methylsulfonyl)phenyl)-2-(3-methylmorpholino)pyrimidin-4-yl)phenyl)-3-(2-hydroxyethyl)urea]
2 | 0.1 to 1 | 0.1 to 1 | ≥ 10 | C[C@H]1COCCN1c1ccnc(-c2ccc(NC(=O)Nc3ccncc3)cc2)n1 [Example 60, (S)-1-(4-(4-(3-methylmorpholino)pyrimidin-2-yl)phenyl)-3-(pyridin-4-yl)urea]
3 | 0.1 to 1 | 0.1 to 1 | ≥ 10 | C[C@H]1COCCN1c1cc(-c2ccccc2S(C)(=O)=O)nc(-c2ccc(NC(=O)NC3CC3)cc2)n1 [Example 6, (S)-1-cyclopropyl-3-(4-(4-(3-methylmorpholino)-6-(2-(methylsulfonyl)phenyl)pyrimidin-2-yl)phenyl)urea]
4 | 0.1 to 1 | 0.1 to 1 | ≥ 10 | CCNC(=O)Nc1ccc(-c2cc(-c3cc(F)ccc3S(C)(=O)=O)nc(N3CCOC[C@@H]3C)n2)cc1 [Example 2, (S)-1-ethyl-3-(4-(6-(5-fluoro-2-(methylsulfonyl)phenyl)-2-(3-methylmorpholino)pyrimidin-4-yl)phenyl)urea]
5 | 0.1 to 1 | 0.1 to 1 | ≥ 10 | C[C@H]1COCCN1c1cc(-c2ccc(F)nc2)nc(-c2ccc(NC(=O)NC3CC3)cc2)n1 [Example 21, (S)-1-cyclopropyl-3-(4-(4-(6-fluoropyridin-3-yl)-6-(3-methylmorpholino)pyrimidin-2-yl)phenyl)urea]
6 | 0.1 to 1 | 0.1 to 1 | ≥ 10 | C[C@H]1COCCN1c1cc(-c2cncc(F)c2)nc(-c2ccc(NC(=O)NC3CC3)cc2)n1 [Example 23, (S)-1-cyclopropyl-3-(4-(4-(5-fluoropyridin-3-yl)-6-(3-methylmorpholino)pyrimidin-2-yl)phenyl)urea]
7 | 1 to 10 | 1 to 10 | – | CCNC(=O)Nc1ccc(-c2cc(-c3ccccc3C#N)nc(N3CCOC[C@@H]3C)n2)cc1 [Example 8, (S)-1-(4-(6-(2-cyanophenyl)-2-(3-methylmorpholino)pyrimidin-4-yl)phenyl)-3-ethylurea]
8 | 0.1 to 1 | 0.1 to 1 | ≥ 10 | C[C@H]1COCCN1c1nc(-c2ccc(NC(=O)NCCF)cc2)cc(-c2cc(F)ccc2S(C)(=O)=O)n1 [Example 44, (S)-1-(4-(6-(5-fluoro-2-(methylsulfonyl)phenyl)-2-(3-methylmorpholino)pyrimidin-4-yl)phenyl)-3-(2-fluoroethyl)urea]
9 | 0.1 to 1 | 0.1 to 1 | ≥ 10 | C[C@H]1COCCN1c1nc(-c2ccc(NC(=O)NCC(F)F)cc2)cc(-c2cc(F)ccc2S(C)(=O)=O)n1 [Example 47, (S)-1-(2,2-difluoroethyl)-3-(4-(6-(5-fluoro-2-(methylsulfonyl)phenyl)-2-(3-methylmorpholino)pyrimidin-4-yl)phenyl)urea]
10 | 0.1 to 1 | 0.1 to 1 | ≥ 10 | C[C@H]1COCCN1c1nc(-c2ccc(NC(=O)NCCCO)cc2)cc(-c2cc(F)ccc2S(C)(=O)=O)n1 [Example 64, (S)-1-(4-(6-(5-fluoro-2-(methylsulfonyl)phenyl)-2-(3-methylmorpholino)pyrimidin-4-yl)phenyl)-3-(3-hydroxypropyl)urea]
11 | 0.1 to 1 | 0.1 to 1 | ≥ 10 | C[C@H]1COCCN1c1nc(-c2ccc(NC(=O)NC3CC3)cc2)cc(-c2ccccc2S(C)(=O)=O)n1 [Example 4, (S)-1-cyclopropyl-3-(4-(2-(3-methylmorpholino)-6-(2-(methylsulfonyl)phenyl)pyrimidin-4-yl)phenyl)urea]
12 | 0.1 to 1 | 0.1 to 1 | ≥ 10 | CS(=O)(=O)c1ccc(F)cc1-c1cc(-c2ccc(NC(=O)NCCO)cc2)nc(N2CCOCC2)n1 [Example 62, 1-(4-(6-(5-fluoro-2-(methylsulfonyl)phenyl)-2-morpholinopyrimidin-4-yl)phenyl)-3-(2-hydroxyethyl)urea]
13 | 0.1 to 1 | 0.1 to 1 | ≥ 10 | O=C(Nc1ccncc1)Nc1ccc(-c2nccc(N3CC4CCC(C3)O4)n2)cc1 [Example 61, 1-(4-(4-(8-oxa-3-azabicyclo[3.2.1]octan-3-yl)pyrimidin-2-yl)phenyl)-3-(pyridin-4-yl)urea]
14 | 0.1 to 1 | 0.1 to 1 | ≥ 10 | C[C@H]1COCCN1c1cc(-c2ccccn2)nc(-c2ccc(NC(=O)NC3CC3)cc2)n1 [Example 42, (S)-1-cyclopropyl-3-(4-(4-(3-methylmorpholino)-6-(pyridin-2-yl)pyrimidin-2-yl)phenyl)urea]
15 | 0.1 to 1 | 0.1 to 1 | ≥ 10 | C[C@H]1COCCN1c1nc(-c2ccc(NC(=O)NC3CC3)cc2)cc(-c2cccnc2S(C)(=O)=O)n1 [Example 46, (S)-1-cyclopropyl-3-(4-(2-(3-methylmorpholino)-6-(2-(methylsulfonyl)pyridin-3-yl)pyrimidin-4-yl)phenyl)urea]
16 | – | 0.1 to 1 | ≥ 10 | C[C@H]1COCCN1c1nc(-c2ccc(NC(=O)N[C@H]3CCC[C@@H]3O)cc2)cc(-c2cc(F)ccc2S(C)(=O)=O)n1 [Example 76, 1-(4-(6-(5-fluoro-2-(methylsulfonyl)phenyl)-2-((S)-3-methylmorpholino)pyrimidin-4-yl)phenyl)-3-((1S,2S)-2-hydroxycyclopentyl)urea]
17 | 0.1 to 1 | 0.1 to 1 | ≥ 10 | C[C@H]1COCCN1c1cc(-c2ccccn2)nc(-c2ccc(NC(=O)NCCO)cc2)n1 [Example 43, (S)-1-(2-hydroxyethyl)-3-(4-(4-(3-methylmorpholino)-6-(pyridin-2-yl)pyrimidin-2-yl)phenyl)urea]
18 | 0.1 to 1 | 0.1 to 1 | ≥ 10 | C[C@H]1COCCN1c1nc(-c2ccc(NC(=O)NC3CC3)cc2)cc(-c2cc(F)ccc2S(C)(=O)=O)n1 [Example 40, (S)-1-cyclopropyl-3-(4-(6-(5-fluoro-2-(methylsulfonyl)phenyl)-2-(3-methylmorpholino)pyrimidin-4-yl)phenyl)urea]
